US9867376B2, “Herbicidal compositions comprising N-tetrazol-5-yl)- or N-(triazol-5-yl)arylcarboxamides” (priority 2012, dated 2018)

Assays:
Type in all cases: in vivo
[1] = system: Setaria viridis; assay: Field trial, post-emergence, visual scoring; conditions: alone
Method: (§1) The tests were conducted outdoors (plot trials, 10 m^2 per plot, 2 repetitions, spray application with 200-300 liters of water per hectare). Crops and broad-leaved weeds/weed grasses were sown under customary field conditions. In addition, a natural weed flora also appeared. Application was by the post-emergence method. The application rates of the herbicidally active compounds applied on their own or in combinations are likewise shown in the tables below. Evaluations were by visual scoring (using a 0-100% scale) after application by comparison of treated and untreated test variants.
(§2) The abbreviations denote: • a.i.=active ingredient • E^C=expected value according to Colby (E^C=A+B−A×B100) • Δ=difference (%) of the measured value to the expected value (%) (measured value minus expected value)
(§3) Evaluation: • measured value E is greater than E^C:→synergism (+Δ) • measured value E equals E^C:→additive effect • measured value E is smaller than E^C:→antagonism (−Δ)

[2] = system: Cassia obtusifolia; assay: Field trial, post-emergence, visual scoring; conditions: alone
Method: as §1, §2, §3

[3] = system: Echinochloa crus-galli; assay: Greenhouse trial, post-emergence, visual herbicidal effect
Method: (§4) The weed seeds were sown in pots (diameter 8 cm) with sandy loam soil and germinated under optimum conditions. The herbides were applied by the post-emergence method onto the pots with the cultures, at a spray volume of 300 I/ha. The herbicides were applied on their own and in combination. The trial was conducted in a greenhouse under optimum growth conditions. The herbicidal effects were assessed visually by comparison of untreated and treated plants. The percentages mean: 0%=no effects, 100%=the plants die off completely). The percentages are used to calculate interactions between individual treatments and combination treatment according to S. R. Colby, Weeds 15, pages 20 to 22 (1967).
as §2, §3

[4] = system: broad-leaved weeds/weed grasses; assay: Field trial, post-emergence, visual scoring (species not listed above); conditions: dosage 25 g of a.i./ha
Method: as §1, §2, §3

[5] = system: Xanthium strumarium; assay: Greenhouse trial, post-emergence, visual herbicidal effect; conditions: alone
Method: as §4, §2, §3

[6] = system: Bidens pilosa; assay: as above
Method: as §4, §2, §3

[7] = system: Ambrosia artemisiifolia; assay: as above; conditions: alone
Method: as §4, §2, §3

[8] = system: Digitaria sanguinalis; assay: as above
Method: as §4, §2, §3

[9] = system: Pharbitis purpurea; assay: as above; conditions: alone
Method: as §4, §2, §3

[10] = system: Setaria viridis; assay: as above; conditions: alone
Method: as §4, §2, §3

[11] = system: Brachiaria platyphylla; assay: as above
Method: as §4, §2, §3

[12] = system: Lolium multiflorum; assay: Field trial, post-emergence, visual scoring; conditions: alone
Method: as §1, §2, §3

[13] = system: Galium aparine; assay: Field trial, post-emergence, visual scoring; conditions: alone
Method: as §1, §2, §3

[14] = system: Sida spinosa; assay: Field trial, post-emergence, visual scoring; conditions: alone
Method: as §1, §2, §3

[15] = system: Centaurea cyanis; assay: Greenhouse trial, post-emergence, visual herbicidal effect; conditions: alone
Method: as §4, §2, §3

[16] = system: Viola tricolor; assay: as above; conditions: alone
Method: as §4, §2, §3

[17] = system: Papaver rhoeas; assay: as above; conditions: alone
Method: as §4, §2, §3

[18] = system: Polygonum convolvulus; assay: as above; conditions: alone
Method: as §4, §2, §3

[19] = system: Veronica hederifolia; assay: Field trial, post-emergence, visual scoring; conditions: alone, 25 g of a.i./ha
Method: as §1, §2, §3

[20] = system: Avena fatua; assay: Greenhouse trial, post-emergence, visual herbicidal effect; conditions: alone
Method: as §4, §2, §3

[21] = system: Phalaris minor; assay: as above; conditions: Table 5-03, greenhouse, alone, 2 g of a.i./ha
Method: as §4, §2, §3

[22] = system: Portulaca oleracea; assay: Field trial, post-emergence, visual scoring; conditions: Table 5-16, field, alone, 50 g of a.i./ha
Method: as §1, §2, §3

Cc1c(C(=O)c2cnn(C)c2O)ccc(S(C)(=O)=O)c1C1=NOCC1 [topramezone]
Activity [%] against Setaria viridis ([1]; Table 5-23, field, 9 g of a.i./ha): 30%

Cc1ccc2c(c1)[C@H](Nc1nc(N)nc(C(C)F)n1)[C@@H](C)C2 (some centres unmarked) [indaziflam]
Activity [%] against Cassia obtusifolia ([2]; Table 5-24, field, 25 g of a.i./ha): 65%

Cn1nnnc1NC(=O)c1ccc(C(F)(F)F)nc1Cl [A4-7]
Activity [%] against Echinochloa crus-galli ([3]; Greenhouse, dosage 3 g of a.i./ha, Table 5-115): 50%
Activity [%] against Stellaria media ([4]; Table 5-116): 60%

O=c1[nH]c2c(c(=O)n1C1CCCCC1)CCC2 [lenacil]
Activity [%] against Xanthium strumarium ([5]; Table 5-56, greenhouse, 4 g of a.i./ha): 0%
Activity [%] against Xanthium strumarium ([5]; Table 5-73, greenhouse, 400 g of a.i./ha): 0%
Activity [%] against Bidens pilosa ([6]; Greenhouse, dosage 4 g of a.i./ha): 0%
Activity [%] against Bidens pilosa ([6]; Table 5-28, greenhouse, alone, 4 g of a.i./ha): 0%
Activity [%] against Bidens pilosa ([6]; Table 5-33, greenhouse, alone, 4 g of a.i./ha): 0%
Activity [%] against Bidens pilosa ([6]; Table 5-71, greenhouse, alone, 400 g of a.i./ha): 0%
Activity [%] against Ambrosia artemisiifolia ([7]; Table 5-29, greenhouse, 16 g of a.i./ha): 0%
Activity [%] against Ambrosia artemisiifolia ([7]; Table 5-32, greenhouse, 4 g of a.i./ha): 0%
Activity [%] against Echinochloa crus-galli ([3]; Table 5-69, greenhouse, alone, 400 g of a.i./ha): 0%
Activity [%] against Digitaria sanguinalis ([8]; Table 5-35, greenhouse, alone, 4 g of a.i./ha): 0%
Activity [%] against Digitaria sanguinalis ([8]; Table 5-68, greenhouse, alone, 400 g of a.i./ha): 0%
Activity [%] against Pharbitis purpurea ([9]; Table 5-30, greenhouse, 4 g of a.i./ha): 0%
Activity [%] against Pharbitis purpurea ([9]; Table 5-34, greenhouse, 4 g of a.i./ha): 0%
Activity [%] against Pharbitis purpurea ([9]; Table 5-72, greenhouse, 100 g of a.i./ha): 0%
Activity [%] against Setaria viridis ([10]; Table 5-27, greenhouse, 8 g of a.i./ha): 0%
Activity [%] against Setaria viridis ([10]; Table 5-31, greenhouse, 8 g of a.i./ha): 0%
Activity [%] against Setaria viridis ([10]; Table 5-70, greenhouse, 100 g of a.i./ha): 0%
Activity [%] against Brachiaria platyphylla ([11]; Greenhouse, dosage 4 g of a.i./ha, Table 5-109): 0%
Activity [%] against Brachiaria platyphylla ([11]; Greenhouse, dosage 4 g of a.i./ha, Table 5-110): 0%
Activity [%] against Brachiaria platyphylla ([11]; Table 5-55, greenhouse, alone, 4 g of a.i./ha): 0%
Activity [%] against Brachiaria platyphylla ([11]; Table 5-57, greenhouse, alone, 4 g of a.i./ha): 0%
Activity [%] against Brachiaria platyphylla ([11]; Table 5-67, greenhouse, alone, 800 g of a.i./ha): 0%

Cc1cc(Cl)ccc1OCC(=O)O [MCPA]
Activity [%] against Lolium multiflorum ([12]; Table 5-54, field, 280 g of a.i./ha): 0%
Activity [%] against Galium aparine ([13]; Table 5-61, field, 280 g of a.i./ha): 0%
Activity [%] against Setaria viridis ([1]; Table 5-26, field, 280 g of a.i./ha): 0%
Activity [%] against Setaria viridis ([1]; Table 5-80, field, 280 g of a.i./ha): 0%

CP(=O)(O)CCC(N)C(=O)O (centres unmarked) [glufosinate-ammonium]
Activity [%] against Sida spinosa ([14]; Table 5-10, field, 125 g of a.i./ha): 50%

COc1c(C(=O)Nc2nnnn2C)ccc(C(F)F)c1SC [A1-81]
Activity [%] against Echinochloa crus-galli ([3]; Table 5-95, greenhouse, alone, 1 g of a.i./ha): 10%
Activity [%] against Brachiaria platyphylla ([11]; Table 5-94, greenhouse, alone, 1 g of a.i./ha): 10%

O=C(O)CNCP(=O)(O)O [glyphosate]
Activity [%] against Cassia obtusifolia ([2]; Table 5-12, field, 200 g of a.i./ha): 65%

Cc1c(C(=O)Nc2nnnn2C)ccc(S(C)(=O)=O)c1-n1cccn1 [A1-26]
Activity [%] against Centaurea cyanis ([15]; Table 5-38, greenhouse, 3 g of a.i./ha): 40%
Activity [%] against Centaurea cyanis ([15]; Table 5-40, greenhouse, 6 g of a.i./ha): 60%
Activity [%] against Viola tricolor ([16]; Table 5-42, greenhouse, 3 g of a.i./ha): 50%
Activity [%] against Papaver rhoeas ([17]; Table 5-39, greenhouse, 6 g of a.i./ha): 50%
Activity [%] against Papaver rhoeas ([17]; Table 5-41, greenhouse, 3 g of a.i./ha): 30%

COCc1nc(C(F)(F)F)ccc1C(=O)Nc1nnnn1C [A4-2]
Activity [%] against Brachiaria platyphylla ([11]; Greenhouse, dosage 1 g of a.i./ha, Table 5-113): 0%
Activity [%] against Stellaria media ([4]; Table 5-114): 63%

COc1c(S(C)(=O)=O)ccc(C(=O)Nc2nnnn2C)c1Cl [A1-67]
Activity [%] against Xanthium strumarium ([5]; Table 5-77, greenhouse, 4 g of a.i./ha): 0%
Activity [%] against Polygonum convolvulus ([18]; Table 5-78, greenhouse, 4 g of a.i./ha): 10%
Activity [%] against Veronica hederifolia ([19]; Table 5-79, field): 75%
Activity [%] against Setaria viridis ([1]; Table 5-80, field, 25 g of a.i./ha): 65%

O=C(Nc1ccc(F)cc1F)c1cccnc1Oc1cccc(C(F)(F)F)c1 [diflufenican]
Activity [%] against Lolium multiflorum ([12]; Table 5-58, field, 120 g of a.i./ha): 10%

O=C(O)CNCP(=O)([O-])O.[K+] [glyphosate-potassium]
Activity [%] against Sida spinosa ([14]; Table 5-11, field, 200 g of a.i./ha): 30%

COc1c(Cl)ccc(Cl)c1C(=O)O [dicamba]
Activity [%] against Echinochloa crus-galli ([3]; Greenhouse, dosage 12.5 g of a.i./ha, Table 5-108): 0%
Activity [%] against Echinochloa crus-galli ([3]; Greenhouse, dosage 12.5 g of a.i./ha, Table 5-115): 0%
Activity [%] against Echinochloa crus-galli ([3]; Table 5-95, greenhouse, alone, 12.5 g of a.i./ha): 0%
Activity [%] against Digitaria sanguinalis ([8]; Greenhouse, dosage 12.5 g of a.i./ha): 0%
Activity [%] against Setaria viridis ([10]; Table 5-65, greenhouse, 25 g of a.i./ha): 0%
Activity [%] against Brachiaria platyphylla ([11]; Greenhouse, dosage 12.5 g of a.i./ha, Table 5-105): 0%
Activity [%] against Brachiaria platyphylla ([11]; Table 5-64, greenhouse, alone, 25 g of a.i./ha): 10%
Activity [%] against Brachiaria platyphylla ([11]; Table 5-94, greenhouse, alone, 12.5 g of a.i./ha): 0%

Cc1c(C(=O)Nc2nnnn2C)ccc(C(F)(F)F)c1S(C)(=O)=O [A1-7]
Activity [%] against Viola tricolor ([16]; Table 5-09, greenhouse, 3 g of a.i./ha): 50%
Activity [%] against Polygonum convolvulus ([18]; Table 5-08, greenhouse, 3 g of a.i./ha): 10%
Activity [%] against Avena fatua ([20]; Table 5-05, greenhouse, 3 g of a.i./ha): 0%
Activity [%] against Avena fatua ([20]; Table 5-07, greenhouse, 3 g of a.i./ha): 0%
Activity [%] against Papaver rhoeas ([17]; Table 5-06, greenhouse, 3 g of a.i./ha): 60%

Cn1nnnc1NC(=O)c1ccc(C(F)(F)F)cc1S(C)(=O)=O [A1-2]
Activity [%] against Phalaris minor [21]: 0%
Activity [%] against Viola tricolor ([16]; Table 5-02, greenhouse, 2 g of a.i./ha): 60%
Activity [%] against Avena fatua ([20]; Table 5-01, greenhouse, 2 g of a.i./ha): 0%
Activity [%] against Galium aparine ([13]; Table 5-04, field, 25 g of a.i./ha): 70%

Cn1ncnc1NC(=O)c1ccc(C(F)(F)F)c(S(C)(=O)=O)c1Cl [A2-9]
Activity [%] against Echinochloa crus-galli ([3]; Greenhouse, dosage 1 g of a.i./ha, Table 5-108): 0%
Activity [%] against Digitaria sanguinalis ([8]; Greenhouse, dosage 2 g of a.i./ha): 65%
Activity [%] against Brachiaria platyphylla ([11]; Greenhouse, dosage 1 g of a.i./ha, Table 5-105): 0%

COCCOCc1c(S(C)(=O)=O)ccc(C(=O)Nc2nnnn2C)c1Cl [A1-63]
Activity [%] against Xanthium strumarium ([5]; Table 5-73, greenhouse, 8 g of a.i./ha): 80%
Activity [%] against Bidens pilosa ([6]; Table 5-71, greenhouse, alone, 8 g of a.i./ha): 50%
Activity [%] against Echinochloa crus-galli ([3]; Table 5-69, greenhouse, alone, 8 g of a.i./ha): 85%
Activity [%] against Digitaria sanguinalis ([8]; Table 5-68, greenhouse, alone, 8 g of a.i./ha): 45%
Activity [%] against Pharbitis purpurea ([9]; Table 5-72, greenhouse, 4 g of a.i./ha): 35%
Activity [%] against Setaria viridis ([10]; Table 5-70, greenhouse, 4 g of a.i./ha): 50%
Activity [%] against Brachiaria platyphylla ([11]; Table 5-67, greenhouse, alone, 8 g of a.i./ha): 10%
Activity [%] against Veronica hederifolia ([19]; Table 5-74, field): 68%

CSc1nnc(C(C)(C)C)c(=O)n1N [metribuzin]
Activity [%] against Sida spinosa ([14]; Table 5-21, field, 50 g of a.i./ha): 25%
Activity [%] against Portulaca oleracea [22]: 0%
